Laboratory results taken from patent publication US20250206740A1, “PIPERIDINYL-METHYLPURINE PYRIMIDINES AND RELATED COMPOUNDS AND THEIR USE IN TREATING DISEASES AND CONDITIONS” (K36 Therapeutics, Inc., priority 2022, published 2025).

Molecular target: recombinant human NSD2 (Homo sapiens (Human), UniProt O96028)
Experiment: NSD2 inhibitory activity, modified RBC HotSpot HMT Assay (radiometric, 3H-SAM, oligonucleosome substrate)
Type: biochemical
Details: recombinant human NSD2 2 nM, oligonucleosomes from Chicken 0.05 mg/ml, 3H-SAM 1 μM, 1 hour at 30° C.
Method: Exemplary compounds were tested for NSD2 inhibitory activity using a modified RBC HotSpot HMT Assay.
A reaction mixture was prepared by adding oligonucleosomes from Chicken (0.05 mg/ml) to freshly prepared reaction buffer containing 50 mM Tris-HCl (pH 8.5), 50 mM NaCl, 5 mM MgCl2, 0.01% Brij35, 1 mM DTT, and 1% DMSO followed by the addition of recombinant human NSD2, (amino acids 2-end) with N-terminal His tag (2 nM; GenBank Accession No. NM_001042424; MW=155.5 kDa; expressed in Sf9 insect cells) and gentle mixing. The test compounds were diluted in DMSO, added to the reaction mixture in nanoliter amounts by using Acoustic Technology (Echo 550, LabCyte Inc. Sunnyvale, CA) and incubated for 20 minutes at room temperature. The reaction was initiated by the addition of S-Adenosyl-L-[methyl-^3H] methionine (3H-SAM; 1 μM), and the mixture was incubated for 1 hour at 30° C. The reaction mixture was delivered to filter paper and the methylated substrate was quantified by scintillation counting. Data analysis was performed using Excel and GraphPad Prism software for IC50 curve fits. For additional information on the histone methyltransferase assay, see, for example, Horiuchi K Y, et al., “Assay Development for Histone Methyltransferases,” Assay Drug Dev Technol. 2013 May; 11 (4): 227-36.

Sequence of recombinant human NSD2 (O96028 2-1365 limits assumed): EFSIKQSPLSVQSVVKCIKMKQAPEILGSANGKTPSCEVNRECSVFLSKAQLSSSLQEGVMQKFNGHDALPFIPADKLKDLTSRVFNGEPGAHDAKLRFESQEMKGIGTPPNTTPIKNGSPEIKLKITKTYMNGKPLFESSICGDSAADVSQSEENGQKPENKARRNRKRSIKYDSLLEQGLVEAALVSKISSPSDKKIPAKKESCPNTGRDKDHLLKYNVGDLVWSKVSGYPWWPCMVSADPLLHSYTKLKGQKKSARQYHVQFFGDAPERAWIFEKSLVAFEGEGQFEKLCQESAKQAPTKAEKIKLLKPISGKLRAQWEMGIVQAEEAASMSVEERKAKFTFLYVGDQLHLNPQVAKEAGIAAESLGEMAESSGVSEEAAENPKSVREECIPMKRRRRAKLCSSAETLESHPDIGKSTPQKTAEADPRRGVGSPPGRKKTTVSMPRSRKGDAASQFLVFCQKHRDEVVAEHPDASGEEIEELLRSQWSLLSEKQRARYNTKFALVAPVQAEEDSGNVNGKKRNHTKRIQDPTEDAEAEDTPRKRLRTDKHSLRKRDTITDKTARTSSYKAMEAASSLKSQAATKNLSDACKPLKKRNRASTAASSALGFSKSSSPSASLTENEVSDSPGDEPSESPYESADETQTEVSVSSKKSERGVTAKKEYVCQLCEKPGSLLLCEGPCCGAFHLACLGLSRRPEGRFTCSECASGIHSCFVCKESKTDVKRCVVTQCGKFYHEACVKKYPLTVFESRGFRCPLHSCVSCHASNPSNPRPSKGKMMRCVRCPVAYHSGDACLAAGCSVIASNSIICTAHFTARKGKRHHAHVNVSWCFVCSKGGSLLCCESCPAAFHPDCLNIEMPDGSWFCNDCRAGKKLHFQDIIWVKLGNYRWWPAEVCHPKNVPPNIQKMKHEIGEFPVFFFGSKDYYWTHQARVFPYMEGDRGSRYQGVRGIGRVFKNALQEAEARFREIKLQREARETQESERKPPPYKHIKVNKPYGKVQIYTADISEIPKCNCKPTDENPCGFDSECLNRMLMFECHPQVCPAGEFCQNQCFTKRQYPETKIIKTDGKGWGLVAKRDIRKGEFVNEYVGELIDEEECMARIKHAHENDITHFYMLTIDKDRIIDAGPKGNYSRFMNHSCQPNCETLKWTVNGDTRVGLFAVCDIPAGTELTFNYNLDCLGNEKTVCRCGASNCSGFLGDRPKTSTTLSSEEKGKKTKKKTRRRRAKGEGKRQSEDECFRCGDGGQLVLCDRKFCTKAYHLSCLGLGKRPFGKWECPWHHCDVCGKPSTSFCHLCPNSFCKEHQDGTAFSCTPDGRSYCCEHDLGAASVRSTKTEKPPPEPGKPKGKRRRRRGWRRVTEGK

IC50 | SMILES
100 to 1000 nM | COc1cc(F)c(-c2cc(Cn3cnc4c(N)ncnc43)c(N3CCC[C@](N)([C@H](O)C(F)F)C3)nn2)cc1F [Compound I-6, (S)-1-((R)-3-amino-1-(4-((6-amino-9H-purin-9-yl)methyl)-6-(2,5-difluoro-4-methoxyphenyl)pyridazin-3-yl)piperidin-3-yl)-2,2-difluoroethan-1-ol]
100 to 1000 nM | COc1cc(F)c(-c2ncc(N3CCC[C@](N)([C@H](O)C(F)F)C3)c(Cn3cnc4c(N)ncnc43)n2)cc1F [Compound I-1, (S)-1-((R)-3-amino-1-(4-((6-amino-9H-purin-9-yl)methyl)-2-(2,5-difluoro-4-methoxyphenyl)pyrimidin-5-yl)piperidin-3-yl)-2,2-difluoroethan-1-ol]
10 to 100 nM | COc1cc(F)c(-c2nc(Cn3cnc4c(N)ncnc43)c(N3CCC[C@@](N)([C@H](O)C(F)F)C3)s2)cc1F [II-2]
